The subject of assay [1] is SKOV3 cells. The assay is described as follows: Boyden chamber migration of SKOV3 cells induced by NIH3T3-CM/VEGF. The assay is classed as cell-based. The conditions noted are these: for Effective concentration for cell migration inhibition, lower end / Effective concentration for cell migration inhibition, upper end: SKOV3 migration. The protocol:
(§1) A2780 (FIG. 10a) and SKOV3 (FIG. 10b) cells were incubated with the indicated concentrations of Å6 peptide for 30 min at 37° C. Aliquots representing 6,000 cells were placed on quadruplicate, CnI-coated filters (8 μm pores) in Boyden chambers and the cells allowed to migrate overnight in response to 10 ng/ml VEGF in NIH3T3-conditioned media containing the indicated concentrations of Å6. Upon completion of migration, the apical surfaces of the membranes were wiped clean and the migrating cells on the basal surface were stained with Geimsa stain and the cells present in representative fields of the membranes counted. Data represent the averages+/−standard deviations obtained from the replicate filters. […] This provides further confirmation that CD44 is the target for the Å6 peptide.
SKOV3 cells are harvested by trypsinization and washed once with RPMI-0.5% BSA. Next, the cells are re-suspended in RPMI+0.5% BSA@6E4/mL (6000 cells/100 μL). The peptide is pre-treated with 500 μL of cells added to 500 μL peptide NASAPPEE (SEQ ID NO: 3) (2× concentration, final conc, at 100, 10, 1, 0.1, 0.01, 0.001 uM) and the mixture incubated 30 minutes at 37° C., under 5% CO2. The Boyden chamber is assembled by: Placing in the bottom chambers: 220 μL of serum/BSA free DMEM or NIH3T3CM+10 ng/ml VEGF or NIH3T3CM+10 ng/ml VEGF+peptide. Place 8 μm filters on the top of the bottom chambers. The 8 μm filters are coated with 1 mg/ml collagen I at 4° C. overnight, washed with PBS twice, air dry before use. Add 200 μL of cells with or without peptide pretreatment to the top of Boyden chamber. Note that the peptide is in both top and bottom chambers. Cells migrate overnight at 37° C., under 5% CO2 in incubator. Next, Boyden chambers are disassembled the and filters collected. The cells on the filters after collection are treated with −20° C. methanol for 3 minutes at room temperature and stained with 30% Geimsa for 7 minutes at room temperature, and washed with water twice. The filters are mounted on slides, air dried and the cells counted.
Cell numbers were obtained by counting the cells in four fields of filters using a 40× objective. The cells migrating into the bottom chambers were also counted as follows: a) 200 μL fluid in the bottom chamber was transferred to a well of 96-well plate; b) The plate was centrifuged at 1200 rpm for 5 minutes; c) 180 μL of supernatant was removed; d) The cell pellet was resuspended with the remaining 20 μL fluid and the cells counted using a hemocytometer. […] This compares favorably to the Å6 peptide which is effective between 5 μM and 100 nM.

Assay [2] has as its system A2780 cells. The assay is described as follows: Boyden chamber chemotaxis of A2780 cells. It counts as cell-based. As to conditions: 10 ng/ml VEGF in NIH3T3-conditioned media, overnight. The protocol:
as §1

The subject of assay [3] is A2780 cells. The experiment in a line: Adhesion of A2780 cells to hyaluronic acid. The assay is classed as cell-based. As to conditions: immobilized HA; 1 or 10 μM Å6. The protocol:
In FIG. 12 A2780 cells were cultured overnight with or without 10 μM Å6 or 100 ng/ml PMA. The cells were then detached, washed and loaded with 20 μg/ml CFDA-SE for 30 min at 37° C. After washing, the cells were resuspended in PBS containing 10% FCS and triplicate aliquots representing 100,000 cells incubated for 30 min at room temperature with no additions, 1 or 10 μM Å6 or with 20 ng/ml IM7, a blocking anti-CD44 rat monoclonal antibody. The cells were then placed into microtiter wells that had been coated with 50 ul of 1 mg/ml HA overnight and blocked for 30 min with 10% FCS. The cells were allowed to adhere at room temperature for 30 min after which, the wells were decanted and washed 3 times. The fluorescence in each well was assessed (excit./emiss.: 460/536 nm) and the mean fluorescence values (+/standard deviation) of the triplicate determinations calculated.

The test system of assay [4] is SKOV3 cells. The assay is described as follows: Adhesion of SKOV3 cells to hyaluronic acid. It counts as cell-based. As for the experimental part: In FIG. 11 SKOV3 cells were cultured overnight with or without 10 μM Å6 or 100 ng/ml PMA. The cells were then detached, washed and loaded with 20 μg/ml CFDA-SE for 30 min at 37° C. After washing, the cells were resuspended in PBS containing 10% FCS and triplicate aliquots representing 100,000 cells incubated for 30 min at room temperature with no additions, 1 or 10 uM Å6 or with 20 ng/ml IM7, a blocking anti-CD44 rat monoclonal antibody. The cells were then placed into microtiter wells that had been coated with 50 μl, of 1 mg/mL HA overnight and blocked for 30 min with 10% FCS. The cells were allowed to adhere at room temperature for 30 minutes after which, the wells were decanted and washed 3 times. The fluorescence in each well was assessed (excit./emiss.: 460/536 nm) and the mean fluorescence values (+/standard deviation) of the triplicate determinations calculated. […] The control experiment with IM7 (graphs on far right) indicates inhibition of SKOV3 binding to HA in the presence of this anti-CD44, which indicates a role for CD44 in binding HA.

Assay [5] addresses T1, CD44 on SKOV3 cells (Homo sapiens, UniProt P16070).
T1 construct: endogenous in cells; host or cells: SKOV3
The assay is described as follows: FACs analysis of anti-CD44 (DF1485) binding to SKOV3 cells in the presence of Å6. The assay is classed as cell-based. As to conditions: pre-incubation with Å6 on ice 10 or 30 min, FACS MnI. The protocol: In FIG. 4 SKOV3 cells were detached from their culture flasks by brief trypsinization, washed twice with DPBS and incubated on ice with the indicated concentrations of Å6 for 10 min (exp. 1) or 30 min (exp. 2). Anti-CD44 (DF1485; Santa Cruz Biotech.) or its isotype control were then added to final concentrations of 1 μg/ml (exp. 1) or 1 and 0.5 μg/ml (exp. 2) and the cells incubated for 1 hr on ice. The cells were washed once and incubated with FITC-conjugated donkey anti-mouse IgG (H+L) for 30 minutes on ice and then subjected to FACS analysis with a Beckman Coulter Epics XL-MCL cytofluorimeter. Data analysis was performed using the Coulter Epics software. Note: Data are presented as mean fluorescence intensities (MnI) obtained with the MnI of the negative control in each experiment adjusted to <0.5 during data collection. […] Similar CD44 expression in ovarian cancer lines using different anti-CD44 antibodies is assessed in FIG. 5, for which the MnI values are summarized in FIG. 6.

In assay [6] the target is T2, CD44 (Homo sapiens, UniProt P16070).
T2 construct: endogenous in cells; host or cells: SKOV3
T2 sequence (P16070 21-742): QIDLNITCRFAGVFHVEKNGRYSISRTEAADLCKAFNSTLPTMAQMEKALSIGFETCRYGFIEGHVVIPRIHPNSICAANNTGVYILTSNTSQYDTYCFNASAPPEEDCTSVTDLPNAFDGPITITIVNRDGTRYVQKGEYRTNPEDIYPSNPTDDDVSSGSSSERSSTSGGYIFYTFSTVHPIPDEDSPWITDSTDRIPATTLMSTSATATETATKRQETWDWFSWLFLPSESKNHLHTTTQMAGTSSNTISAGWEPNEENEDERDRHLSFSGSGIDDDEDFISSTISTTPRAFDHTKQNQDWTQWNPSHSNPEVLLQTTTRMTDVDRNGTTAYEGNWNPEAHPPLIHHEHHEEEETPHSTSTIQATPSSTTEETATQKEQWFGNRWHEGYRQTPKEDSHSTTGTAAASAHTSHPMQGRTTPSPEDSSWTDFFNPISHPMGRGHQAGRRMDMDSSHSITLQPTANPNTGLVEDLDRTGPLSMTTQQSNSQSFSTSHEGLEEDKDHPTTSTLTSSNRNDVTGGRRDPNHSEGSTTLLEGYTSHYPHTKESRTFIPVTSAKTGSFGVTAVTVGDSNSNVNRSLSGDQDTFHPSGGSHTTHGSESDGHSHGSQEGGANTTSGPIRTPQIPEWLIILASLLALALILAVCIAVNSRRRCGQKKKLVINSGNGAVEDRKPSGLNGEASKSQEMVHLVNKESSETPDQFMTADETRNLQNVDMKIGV
The experiment in a line: Immunoprecipitation of Å6Cbio-crosslinked SKOV3 polypeptides with anti-CD44, HRP-SA blotting. It counts as binding. As to conditions: SKOV3 cells, 100 μM Å6Cbiotin, BS3 crosslinking, anti-CD44 DF1485. The protocol: In FIGS. 1 and 2 SKOV3 cells were incubated with or without 100 μM Å6Cbiotin (Å6CbioXL and ConXL, respectively) for 30 min at 4° C. The cells were then crosslinked with 5 mM bis(sulfosuccinimidyl) suberate (Sulfo-DSS or BS^3) for 30 min at 4° C. and Triton X-100 lysates generated. The lysates were pre-cleared by incubating with Protein A-agarose for 2 hr at room temperature. Aliquots representing 100 μg of the cleared lysates were then incubated overnight at room temperature with 20 μL of Protein A-agarose plus 2 μg of anti-Tenascin R (TnR; E-18, Santa Cruz Biotech.), anti-Tenascin C (TnC; 300-3, Santa Cruz Biotech.), anti-CD44 (DF1485, Santa Cruz Biotech.), anti-Plexin-A1 (P1 A1; H-60, Santa Cruz Biotech.) or murine IgG1 (Sigma Chem. Co.). After washing 5 times with lysis buffer, the immunoprecipitated polypeptides were eluted from the Protein A-agarose by boiling in SDS-PAGE sample buffer. The eluted material and 2 μg aliquots of the starting material were then subjected to SDS-PAGE, transfer to PVDF membranes and blotting with chemiluminescent horseradish peroxidase (HRP)-conjugated streptavidin (HRP-SA).
In FIG. 3 SKOV3 cells were incubated with or without 100 μM Å6Cbiotin (Å6CbioXL and control, respectively) for 30 minutes at 4° C. The cells were then crosslinked with 5 mM BS3 for 30 min at 4° C. […]

The target in assay [7] is T2, CD44. The assay is described as follows: Dimerization of CD44 in SKOV3 cells, anti-CD44 B-F24 immunoblot. It counts as cell-based. As to conditions: SKOV3 cultured 20 hr with 1 or 10 μM Å6, non-reducing. As for the experimental part: In FIG. 13 SKOV3 cells were cultured for 20 hr with no additions, 1 or 10 μM Å6 or 100 ng/ml PMA. Triton X-100 lysates were generated and further solubilized in SDS-PAGE sample buffer under non-reducing conditions. Aliquots representing 7.5 μg of cellular protein were subjected to SDS-PAGE followed by immunoblot analysis with the anti-CD44 murine monoclonal B-F24. The presence of stained higher molecular weight bands can be indicative of CD44 dimers and/or oligomers.
(In general: In western blotting, separated proteins are transferred to a membrane and probed.)

Assay [8] deals with T1, CD44 on SKOV3 cells. The assay is described as follows: FACs analysis of IM7 binding to SKOV3 cells in the presence of Å6. It counts as cell-based. The conditions noted are these: IM7 1 μg/ml, 4° C. As for the experimental part:
In FIGS. 14a and 14b SKOV3 cells were incubated with the indicated concentrations of Å6 for 30 min at 4° C. IM7 (1 μg/ml) was then added and allowed to bind for 30 min at 4° C., after which the cells were washed and incubated with FITC-donkey anti-rat IgG for 30 min at 4° C. The cells were washed once and then subjected to FACs analysis.

Assay [9] has as its system B16 melanoma cells. The assay is described as follows: B16 melanoma lung metastasis model. It counts as in vivo, C57BL/6J mice. As to conditions: about 1×10^5 melanoma cells injected in the tail vein. The protocol:
The B16 melanoma metastasis is well known in the art. A typical protocol for assessing the inhibitory effect of a compound on metastasis is described below. Such a protocol was followed to assess the effect of Å6 on metastasis.
Briefly, B16 melanoma cells can be cultured in RPMI-1640 with 10% fetal bovine serum at 37° C. in an atmosphere of 95% air and 5% CO2. C57BL/6J mice of six to eight weeks can be purchased from commercial suppliers. For the lung metastasis model, about 1×10^5 melanoma cells suspended in 100 μl saline were injected in the tail vein in the presence or absence of Å6. Administration of the Å6 peptide inhibited the lung metastasis by 50% or more.

In assay [10] the target is T2, CD44. The experiment in a line: Anti-CD44 (DF1485) immunoblot analysis of Å6CbioXL polypeptides and Å6-BSA. It counts as binding. As to conditions: SKOV3 lysates. The protocol: In FIG. 7 30 μg aliquots of Å6CbioXL and control (ConXL) SKOV3 lysates, as well as 2 μg aliquots of Å6-crosslinked BSA (Å6-BSA) and BSA, were subjected to immunoblot analysis using the DF1485 anti-CD44 antibody (Santa Cruz Biotech). The DF1485 blots were stained with HRP-conjugated sheep anti-Mouse IgG; heavy and light chain specific (GE Health Sciences). The rabbit anti-Å6 blot was stained with HRP-conjugated donkey anti-rabbit IgG; heavy and light chain specific (Jackson Immunoresearch). Stained bands were visualized by the ECL-plus chemiluminescence reagent (GE Health Sciences) and exposure to Hyperfilm ECL film (GE). In panel 1, anti-CD44 produced bands in the Å6CbioXL (A lane) and control (C) lane. […] In addition, 2 μg aliquots of the Å6CbioXL and ConXL lysates were concurrently blotted with HRP-streptavidin to identify polypeptides labeled with Å6Cbio, and shown in panel 2. 2 μg of Å6-BSA and BSA were also blotted with Rb anti-Å6 to confirm the presence of Å6 on the Å6-BSA, as shown in the third panel of FIG. 7.

Entries after “also recorded” stand apart in the source; their conditions may differ. No end group written: not given here.

T1 sequence (P16070 21-742): as above

Ac-KPSSPPEE-Am (Ac-KPSSPPEE-NH2) [Å6]: the “Effect on migration of SKOV3 cells” value in [1] (10 ng/ml VEGF in NIH3T3-conditioned media, overnight) was “strong inhibition”. In assay [1], the “Effective concentration for cell migration inhibition, lower end” value is on record as 100 nM and the “Effective concentration for cell migration inhibition, upper end” value was 5 µM. Also, the “Effect on migration of A2780 cells” value in [2] was “essentially unaffected”. In addition, the “Effect on A2780 binding to HA” value in [3] is “does not substantially modulate”. Moreover, the “Effect of a 10-fold increase in peptide concentration on SKOV3 binding to HA” value in [4] (1 vs 10 μM Å6) is recorded as “little effect”. Also, the “Effect on SKOV3 binding to HA” value in assay [4] (immobilized HA, 1 or 10 μM Å6, 20 ng/ml IM7) is “enhanced”. Also, the “Effect on binding of DF1485 anti-CD44 to SKOV3 cells” value in assay [5] is listed as “inhibits the binding of DF1485 anti-CD44 to SKOV3 cells”. Besides, the “Target identified by immunoprecipitation of crosslinked biotinylated peptide” value in [6] was “targets CD44; also recorded: CD44 as the target”. Also, the “Formation of higher molecular weight CD44 bands (dimers/oligomers)” value in assay [7] is “higher molecular weight bands are formed”. In [8], the “Effect on IM7 antibody binding to SKOV3 cells” value is reported as “increase in antibody binding with increasing concentration”. Also, in [9], the “Inhibition of lung metastasis” value was at least 50%.
On to NASAPPEE, for which, in assay [1], the “Effective concentration for cell migration inhibition, lower end” value is 1 nM and the “Effective concentration for cell migration inhibition, upper end” value came to 100 µM.
Turning to “Å6CbioXL: SKOV3 cells incubated with 100 μM Å6Cbiotin and crosslinked with BS3; lysate polypeptides labeled with Å6Cbio (KPSSPPEE; also: biotin label (Cbio) at an unstated position, BS3 crosslinked to cell polypeptides)”, the “Effect on binding of anti-CD44 to CD44 (band intensity)” value in assay [10] is “reduces the binding of anti-CD44 to CD44”.

For the origin of these results see patent publication US8313914B2, “Compositions and methods for modulation of cell migration” (Angstrom Pharmaceuticals, Inc., priority 2009, dated 2012).
